Test results from patent US6713500B2, “Agent for controlling animal diseases caused by parasites” (Ishihara Sangyo Kaisha Ltd., priority 1999, dated 2004).
Where two headings read alike, the source gives them in different places.

System: Eimeria tenella of wild type (fresh immature oocysts)
Assay: microbe, parasite or virus in culture
Type: cell-based
Conditions: read-out: Mortality of oocysts (%)
Experimental: Chicks were infested with Eimeria tenella of wild type to obtain fresh immature oocycts. The obtained fresh immature oocysts were exposed to a solution of each test substance having a predetermined concentration for 10 or 30 minutes. The exposed immature oocysts were centrifuged at 1500 min^−1 for 5 minutes, and the supernatant was removed. Then, a 2% potassium bichromate aqueous solution was added, and sporulation was carried out at 25° C. for 4 days, whereupon the ratio of mature oocysts (sporulated oocysts) to the number of observed oocysts, was calculated.
Mortality of oocysts={1−(sporulation rate with exposure to test substance)/(sporulation rate without exposure to test substance)}×100

## CCc1ccc(C(F)c2c(Cl)nc(C#N)n2S(=O)(=O)N(C)C)cc1 (stereo not drawn) [compound 5, 4-chloro-2-cyano-1-dimethylsulfamoyl-5-(4-ethyl-α-fluorobenzyl)imidazole]
10 min, Exposure time: 10 min, 0.1 ppm
  mortality at 0.1 ppm: 34.4%
10 min, Exposure time: 10 min, 1 ppm
  mortality at 1 ppm: 30%
10 min, Exposure time: 10 min, 10 ppm
  mortality at 10 ppm: 75%
0.5 h, Exposure time: 30 min, 0.1 ppm
  mortality at 0.1 ppm: 71.3%
0.5 h, Exposure time: 30 min, 1 ppm
  mortality at 1 ppm: 75.2%
0.5 h, Exposure time: 30 min, 10 ppm
  mortality at 10 ppm: 72.6%

## Cc1ccc(-c2c(Cl)nc(C#N)n2S(=O)(=O)N(C)C)cc1 [compound 1, 4-chloro-2-cyano-1-dimethylsulfamoyl-5-(4-methylphenyl)imidazole]
10 min
  mortality at 0.1 ppm: 43.8%
  mortality at 1 ppm: 36.9%
  mortality at 10 ppm: 42.5%
0.5 h
  mortality at 0.1 ppm: 51.1%
  mortality at 1 ppm: 80.3%
  mortality at 10 ppm: 87.9%
